According to paper PMC3641831 (Biochemistry, 2010):

System: poly(dA)•2poly(dT)
Experiment: UV denaturation, triplex transition
Assay type: binding

c1cc2ccc3cccc4ccc(c1)c2c34 [Compound 5, reference compound]
stabilization of DNA triplex: does not stabilize
